Assays:
[1] = biological target: Receptor tyrosine-protein kinase erbB-3 (Homo sapiens) (UniProt P21860); assay: Binding affinity to wild-type human partial length ERBB3 (G684 to A987 residues) expressed in mammalian expression system assessed as residual binding level at 10 uM by Kinomescan method relative to control
[2] = biological target: Mitogen-activated protein kinase kinase kinase 13 (Homo sapiens) (UniProt O43283); assay: Binding affinity to wild-type human full length LZK (M1 to W966 residues) expressed in mammalian expression system assessed as residual binding level at 10 uM by Kinomescan method relative to control
[3] = biological target: Serine/threonine-protein kinase Nek2 (Homo sapiens) (UniProt P51955); assay: Binding affinity to wild-type human partial length NEK2 (M1 to K309 residues) expressed in bacterial expression system assessed as residual binding level at 10 uM by Kinomescan method relative to control
[4] = biological target: Cyclin-dependent kinase 8 (Homo sapiens) (UniProt P49336); assay: Binding affinity to wild-type human partial length CDK8 (M1 to T360 residues) expressed in bacterial expression system assessed as residual binding level at 10 uM by Kinomescan method relative to control
[5] = biological target: Serine/threonine-protein kinase MARK1 (Homo sapiens) (UniProt Q9P0L2); assay: Binding affinity to wild-type human partial length MARK1 (Q30 to T341 residues) expressed in bacterial expression system assessed as residual binding level at 10 uM by Kinomescan method relative to control
[6] = biological target: Casein kinase II subunit alpha' (Homo sapiens) (UniProt P19784); assay: Binding affinity to wild-type human full length CSNK2A2 (M1 to R350 residues) expressed in mammalian expression system assessed as residual binding level at 10 uM by Kinomescan method relative to control
[7] = biological target: Serine/threonine-protein kinase PLK3 (Homo sapiens) (UniProt Q9H4B4); assay: Binding affinity to wild-type human partial length PLK3 (A42 to L334 residues) expressed in mammalian expression system assessed as residual binding level at 10 uM by Kinomescan method relative to control
[8] = biological target: Cyclin-dependent kinase-like 3 (Homo sapiens) (UniProt Q8IVW4); assay: Binding affinity to wild-type human partial length CDKL3 (M1 to D327 residues) expressed in bacterial expression system assessed as residual binding level at 10 uM by Kinomescan method relative to control
[9] = biological target: Dual specificity protein kinase TTK (Homo sapiens) (UniProt P33981); assay: Binding affinity to wild-type human partial length TTK (N505 to V798 residues) expressed in bacterial expression system assessed as residual binding level at 10 uM by Kinomescan method relative to control
[10] = biological target: Serine/threonine-protein kinase WNK4 (Homo sapiens) (UniProt Q96J92); assay: Binding affinity to wild-type human partial length WNK4 (A31 to D461 residues) expressed in mammalian expression system assessed as residual binding level at 10 uM by Kinomescan method relative to control
[11] = biological target: Phosphatidylinositol 4,5-bisphosphate 3-kinase catalytic subunit gamma isoform (Homo sapiens) (UniProt P48736); assay: Binding affinity to wild-type human partial length PIK3CG (S144 to A1102 residues) expressed in mammalian expression system assessed as residual binding level at 10 uM by Kinomescan method relative to control
[12] = test system: Epidermal growth factor receptor (Homo sapiens), P00533 [UNDEFINED MUTATION]; assay: Binding affinity to human partial length EGFR L747-T751del/Sins mutant expressed in bacterial expression system assessed as residual binding level at 10 uM by Kinomescan method relative to control
[13] = biological target: Phosphorylase b kinase gamma catalytic chain, skeletal muscle/heart isoform (Homo sapiens) (UniProt Q16816); assay: Binding affinity to wild-type human full length PHKG1 (M1 to Y387 residues) expressed in bacterial expression system assessed as residual binding level at 10 uM by Kinomescan method relative to control
[14] = biological target: Serine/threonine-protein kinase SBK1 (Homo sapiens) (UniProt Q52WX2); assay: Binding affinity to wild-type human partial length SBK1 (P23 to P348 residues) expressed in mammalian expression system assessed as residual binding level at 10 uM by Kinomescan method relative to control
[15] = biological target: Tyrosine-protein kinase JAK1 (Homo sapiens) (UniProt P23458); assay: Binding affinity to wild-type human partial length JAK1 JH1 catalytic domain (V856 to K1154 residues) expressed in bacterial expression system assessed as residual binding level at 10 uM by Kinomescan method relative to control
[16] = biological target: Tyrosine-protein kinase Fyn (Homo sapiens) (UniProt P06241); assay: Binding affinity to wild-type human partial length FYN (T243 to L534 residues) expressed in bacterial expression system assessed as residual binding level at 10 uM by Kinomescan method relative to control
[17] = biological target: Serine/threonine-protein kinase Nek7 (Homo sapiens) (UniProt Q8TDX7); assay: Binding affinity to wild-type human full length NEK7 (M1 to S302 residues) expressed in bacterial expression system assessed as residual binding level at 10 uM by Kinomescan method relative to control
[18] = test system: Epidermal growth factor receptor (Homo sapiens), P00533 [UNDEFINED MUTATION]; assay: Binding affinity to human partial length EGFR E746-A750del mutant expressed in bacterial expression system assessed as residual binding level at 10 uM by Kinomescan method relative to control
[19] = biological target: Serine/threonine-protein kinase BRSK2 (Homo sapiens) (UniProt Q8IWQ3); assay: Binding affinity to wild-type human full length BRSK2 (M1 to L674 residues) expressed in bacterial expression system assessed as residual binding level at 10 uM by Kinomescan method relative to control
[20] = biological target: Mitogen-activated protein kinase 9 (Homo sapiens) (UniProt P45984); assay: Binding affinity to wild-type human full length JNK2 (M1 to Q382 residues) expressed in mammalian expression system assessed as residual binding level at 10 uM by Kinomescan method relative to control
[21] = biological target: Serine/threonine-protein kinase/endoribonuclease IRE1 (Homo sapiens) (UniProt O75460); assay: Binding affinity to wild-type human partial length ERN1 (S551 to E852 residues) expressed in mammalian expression system assessed as residual binding level at 10 uM by Kinomescan method relative to control
[22] = biological target: Protein kinase C delta type (Homo sapiens) (UniProt Q05655); assay: Binding affinity to wild-type human partial length PRKCD (Q328 to D676 residues) expressed in bacterial expression system assessed as residual binding level at 10 uM by Kinomescan method relative to control
[23] = biological target: SNF-related serine/threonine-protein kinase (Homo sapiens) (UniProt Q9NRH2); assay: Binding affinity to wild-type human partial length SNRK (M1 to E339 residues) expressed in mammalian expression system assessed as residual binding level at 10 uM by Kinomescan method relative to control
[24] = biological target: Tyrosine-protein kinase JAK1 (Homo sapiens) (UniProt P23458); assay: Binding affinity to wild-type human partial length JAK1 JH2 pseudokinase domain (R537 to D855 residues) expressed in mammalian expression system assessed as residual binding level at 10 uM by Kinomescan method relative to control
[25] = biological target: Focal adhesion kinase 1 (Homo sapiens) (UniProt Q05397); assay: Binding affinity to wild-type human partial length FAK (D402 to R696 residues) expressed in bacterial expression system assessed as residual binding level at 10 uM by Kinomescan method relative to control

## O=C(Nc1cc(-c2cn(CCNc3c4c(nc5ccccc35)CCCC4)nn2)ccn1)Nc1cccc2c1C1CCCCN1C2=O (racemic)
[1]
  Activity: 73%
[2]
  Activity: 13%
[3]
  Activity: 94%
[4]
  Activity: 64%
[5]
  Activity: 50%
[6]
  Activity: 5%
[7]
  Activity: 77%
[8]
  Activity: 0%
[9]
  Activity: 9.9%
[10]
  Activity: 100%
[11]
  Activity: 100%
[12]
  Activity: 75%
[13]
  Activity: 54%
[14]
  Activity: 30%
[15]
  Activity: 84%
[16]
  Activity: 74%
[17]
  Activity: 27%
[18]
  Activity: 79%
[19]
  Activity: 70%
[20]
  Activity: 2.6%
[21]
  Activity: 87%
[22]
  Activity: 7.3%
[23]
  Activity: 100%
[24]
  Activity: 36%
[25]
  Activity: 87%

— ChEMBL document CHEMBL4390652, “Design, biological evaluation and X-ray crystallography of nanomolar multifunctional ligands targeting simultaneously acetylcholinesterase and glycogen synthase kinase-3” (Eur J Med Chem, 2019)
